For orientation: NOAEL means the highest dose or exposure tested at which no adverse effect was seen.

One compound from EPA's ToxValDB 9.5 (doi:10.2903/j.efsa.2010.1555) can be followed below.

Where only a bound is given, the exact number is not on record here.

The subject of one data set is Apis mellifera. The settings on record: acute; oral; unspecified; mortality.
The next data set relates to Canidae. The note with it: chronic; duration: 1 years; oral; Dog Other.
The next data set deals with Coturnix coturnix. The settings on record: acute; oral; diet; mortality.
The subject of the next data set is Coturnix japonica. The note with it: reproduction developmental.
The next data set has as its system Daphnia magna. The settings on record: chronic/long-term; duration: 21 days; reproduction.
The test system of the next data set is Tagia sp. The settings on record: acute; duration: 14 days; mortality.
The mark [1] stands for this setting: reproduction developmental, body weight.

For the compound `CCC([O-])=C1C(=O)CC(C(=O)[O-])CC1=O.[Ca+2]` (stereo unspecified) [Prohexadione-calcium], the LD50 in the data set on Anas platyrhynchos (acute, oral, unspecified, mortality) is more than 2000 mg/kg; with Apis mellifera it was more than 100 µg/piece; with Colinus virginianus (acute, oral, mortality), more than 2000 mg/kg; in the data set on Rattus norvegicus (acute, oral, mortality), more than 5000 mg/kg. Also, the NOEC with Anas platyrhynchos (reproductive) was 116 mg/kg-day; in the data set with Colinus virginianus (reproduction developmental), 48.8 mg/kg-day; in the data set on Coturnix japonica, 126 mg/kg-day; with Daphnia magna, 100 mg/L; in the data set on Oncorhynchus mykiss (chronic/long-term, duration: 28 days, growth) it was 100 mg/L. For the same compound, the LC50 was more than 1350 mg/kg-day in the data set on Anas platyrhynchos (short-term, oral, feed, mortality); more than 1210 mg/kg-day in the data set with Coturnix coturnix; more than 100 µg/mL in the data set with Oncorhynchus mykiss (acute, duration: 96 hours, mortality); more than 1000 mg/kg in the data set with Tagia sp.. Moreover, the NOAEL in the data set with Canidae came to 20 mg/kg-day; in the data set on Rattus norvegicus (setting [1]), 35 mg/kg-day. Also, the NOEL in the data set on Rattus norvegicus (setting [1]) stood at 35 mg/kg-day.
